# According to patent US20140248292A1, “COMPOSITIONS AND METHODS FOR TREATING CANCER” (priority 2013, published 2014):
# How the values were obtained:
# PMCA-1 model = assay: In vivo tumor growth, orthotopic PMCA-1 model, single i.p. injection; conditions: 5 mg/kg vs 2.5 mg/kg i.p.
# PMP-1 model = assay: In vivo tumor growth, orthotopic PMP-1 model, single i.p. injection; conditions: both tested doses (2.5 and 5 mg/kg i.p.)
# PMP-2 model = assay: In vivo tumor growth, orthotopic PMP-2 model, single injection
# [1] = tested on: orthotopic models of mucinous peritoneal surface malignancies; assay: In vivo tumor growth, orthotopic models of mucinous peritoneal surface malignancies (model not singled out); conditions: all models; 10 mg/kg i.p.
# [2] = tested on: 2774 ovarian peritoneal carcinomatosis; assay: 2774 ovarian peritoneal carcinomatosis mouse model; assay type: in vivo; conditions: 2774 model; treatment initiated on day 2
# Description: The therapeutic potential of intraperitoneal administration of MOC31PE was then investigated in two experimental mouse models based on the ovarian cancer cell lines B76 (FIG. 15) and 2774 (FIG. 16). The animals were divided into three groups. Day 1 the animals were intraperitoneal injected with B76 cancer cell to mimic the situation in patients after cytoreductive surgery, were non-visible cancer cells are still left. MOC31PE treatment was initiated the day after (Day 2) or on day 8, as indicated by giving either MOC31PE 50 μg/kg intraperitoneal injection (i.p.) or 32 μg/kg intravenous injection (i.v.). […] Disease progression, as increase of abdominal size and other signs of symptoms, were measured twice weekly. Body weight was recorded throughout the experiments. Survival as a function of treatment was analysed by Kaplan-Meier plots.
# [3] = tested on: mucinous tumor tissue (PMP-2, PMCA-2, PMP-3, PMP-6); assay: Ex vivo PARP cleavage, Western immunoblot; assay type: cell-based, human; conditions: 24 h, PMP-2 xenograft tissue and both patient samples
# Description: The mucinous cell suspension was seeded in 48-well plates (500 μl/well). […] Thereafter, the cells were lysed by using an SDS boiling method as described previously (Andersson2009). In brief, cell pellets were resuspended in lysis buffer (2% SDS, 1 mM Na3VO4, and 10 mM Tris-Cl (pH 7.6)), which was held at 100° C. when added, and the lysates were boiled for 5 min. After six passages through a 20G syringe on ice, the lysates were cleared by centrifugation. Protein concentrations were then determined using the BCA (bicinchoninic acid) protein assay (Pierce, Rockford, Ill.). The lysates were snap frozen in liquid N2 and kept at −70° C. A portion (15 μg) of each protein lysate was fractionated by 4-12% NuPAGE Bis-Tris gel electrophoresis (Invitrogen, Carlsbad, Calif.), and subsequently transferred by electroblotting to Immobilon membranes (Millipore, Bedford, Mass.). The filters were probed with an anti-PARP antibody (Roche Diagnostics, Mannheim, Germany), anti-EpCAM (MOC31, IQ Corporation, Groningen, the Netherlands) or with anti-alpha tubulin (Calbiochem, La Jolla, Calif.). Immune complexes were detected with an appropriate HRP-coupled secondary antibody. Peroxidase activity was visualized with […] (Amersham Pharmacia Biotech, Buckinghamshire, UK). The western blots were probed with anti-α-tubulin antibody to confirm equal loading and transfer of samples.
molecule,measurement,setting,value
"CO[C@@]12[C@H](COC(N)=O)C3=C(C(=O)C(C)=C(N)C3=O)N1C[C@@H]1N[C@@H]12 [Mitomycin C, mitomycin C]","efficacy, comparison of doses",PMCA-1 model,5 mg/kg was more efficacious than 2.5 mg/kg
same,tumor growth within the observation period,PMP-1 model,almost completely inhibited tumor growth
same,inhibition of tumor growth,"PMP-2 model; all tested doses, single i.p.",substantial inhibition of tumor growth
same,tumor growth within the observation period,PMP-2 model; both tested doses (2.5 and 5 mg/kg i.p.),almost completely inhibited tumor growth
"O=C1[O][Pt]2([NH][C@@H]3CCCC[C@H]3[NH]2)[O]C1=O [Oxaliplatin, oxaliplatin]",growth inhibition (growth indices) compared to vehicle-treated animals,[1],only slight reduction of growth indices
"CC(=O)O[C@H]1C(=O)[C@@]2(C)[C@H]([C@H](OC(=O)c3ccccc3)[C@]3(O)C[C@H](OC(=O)[C@H](O)[C@@H](NC(=O)c4ccccc4)c4ccccc4)C(C)=C1C3(C)C)[C@]1(OC(C)=O)CO[C@@H]1C[C@@H]2O [Ptx, Paclitaxel]","survival / disease progression, combinatorial treatment experiment",[2],significant effect on disease progression
pseudomonas exotoxin A [PE toxin],PARP cleavage / PARP inactivation (Western immunoblot),[3],No PARP inactivation was evident
